Target: T1, ATP-sensitive inward rectifier potassium channel 1 (Homo sapiens, UniProt P48048)
T1 sequence (P48048 whole entry): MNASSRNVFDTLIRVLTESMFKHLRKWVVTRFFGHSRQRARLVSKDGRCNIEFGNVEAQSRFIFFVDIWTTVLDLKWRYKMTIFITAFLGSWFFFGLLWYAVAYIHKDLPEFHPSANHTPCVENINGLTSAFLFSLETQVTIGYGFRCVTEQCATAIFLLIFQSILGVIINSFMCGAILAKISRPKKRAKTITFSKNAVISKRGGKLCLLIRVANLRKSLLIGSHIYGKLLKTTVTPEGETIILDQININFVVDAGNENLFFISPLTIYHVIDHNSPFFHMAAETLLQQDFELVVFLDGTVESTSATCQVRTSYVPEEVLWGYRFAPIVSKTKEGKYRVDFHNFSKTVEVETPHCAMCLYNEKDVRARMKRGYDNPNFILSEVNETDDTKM
Assay: Thallium Flux Assay: A Thallium Flux Assay was performed on each of the final product compounds of the Examples. This assay has been described previously; see, e.g., PCT Published Application WO 2013/062900.

SMILES | IC50
C[C@H]1C[C@]2(CC[C@@H](NCc3cnc(-n4cnnn4)s3)CC2)C(=O)N1C1=CC(=O)OC1 | 24 nM
CC1=C(N2C(=O)[C@]3(CC[C@H](N(C)Cc4cnc(-n5cnnn5)cn4)CC3)C[C@H]2C)COC1=O | 200 nM
CC1=C(N2CC[C@]3(CC[C@@H](N(C)Cc4ccc(-n5ncnn5)nc4)CC3)C2=O)COC1=O | 640 nM
CC1=C(N2CC[C@]3(CC[C@@H](N(C)Cc4cnc(-n5cnnn5)s4)CC3)C2=O)COC1=O | 30 nM
C[C@@H]1C[C@]2(CC[C@@H](NCc3cnc(-n4cnnn4)s3)CC2)C(=O)N1C1=CC(=O)OC1 | 190 nM
CC1=C(N2C(=O)[C@]3(CC[C@H](N(C)Cc4ccc(-n5cnnn5)nn4)CC3)C[C@@H]2C)COC1=O | 200 nM
CC1C[C@]2(CC[C@@H](NCc3ccc(-n4cnnn4)nn3)CC2)C(=O)N1C1=CC(=O)OC1 (stereo not given in full) | 28 nM
CC1=C(N2CC[C@]3(CC[C@@H](N(Cc4ccc(-n5cnnn5)nn4)Cc4ncco4)CC3)C2=O)COC1=O | 210 nM
CC1=C(N2CC[C@]3(CC[C@@H](N[C@@H](C)c4ccc(-n5cnnn5)nn4)CC3)C2=O)COC1=O | 320 nM
CC1=C(N2CC[C@]3(CC[C@@H](NC(C)c4cnc(-n5cnnn5)cn4)CC3)C2=O)COC1=O (stereo not given in full) | 170 nM
CC1=C(N2C(=O)[C@]3(CC[C@H](NCc4ccc(-n5cnnn5)nn4)CC3)C[C@H]2C)COC1=O | 23 nM
CC1=C(N2C(=O)[C@]3(CC[C@H](NCc4ccc(-n5cnnn5)nn4)CC3)C[C@@H]2C)COC1=O | 40 nM
CC1=C(N2CC[C@]3(CC[C@@H](N(CCO)Cc4ccc(-n5cnnn5)nn4)CC3)C2=O)COC1=O | 150 nM
CC1=C(N2CC[C@]3(CC[C@@H](NCc4cc(C)c(-n5cnnn5)nn4)CC3)C2=O)COC1=O | 8.4 nM

The remaining lines, values ahead:

IC50 | SMILES
420 nM | CC1=C(N2C(=O)[C@]3(CC[C@@H](NCc4cnc(-n5cnnn5)cn4)CC3)C[C@@H]2C)COC1=O
110 nM | C[C@@H]1C[C@]2(CC[C@@H](NCc3ccc(-n4cnnn4)nn3)CC2)C(=O)N1C1=CC(=O)OC1
46 nM | CC1C[C@]2(CC[C@@H](NCc3cnc(-n4cnnn4)cn3)CC2)C(=O)N1C1=CC(=O)OC1 (stereo not given in full)
200 nM | CC1=C(N2C(=O)[C@]3(CC[C@H](N(C)Cc4ccc(-n5cnnn5)nn4)CC3)C[C@H]2C)COC1=O
8.4 nM | C[C@H]1C[C@]2(CC[C@H](NCc3ccc(-n4cnnn4)nn3)CC2)C(=O)N1C1=CC(=O)OC1
92 nM | CC1=C(N2CC[C@]3(CC[C@@H](NCc4cnc(-n5cnnn5)s4)CC3)C2=O)COC1=O
270 nM | C[C@@H]1C[C@]2(CC[C@@H](N(C)Cc3ccc(-n4cnnn4)nn3)CC2)C(=O)N1C1=CC(=O)OC1
19 nM | CC1=C(N2CCC3(CCC(NCc4ccc5c(c4C)Cn4nnnc4-5)CC3)C2=O)COC1=O (stereo not given)
30 nM | C[C@H]1C[C@]2(CC[C@@H](NCc3ccc(-n4cnnn4)nn3)CC2)C(=O)N1C1=CC(=O)OC1
310 nM | CC1=C(N2C(=O)[C@]3(CC[C@@H](N(C)Cc4cnc(-n5cnnn5)cn4)CC3)C[C@@H]2C)COC1=O
65 nM | CC1=C(N2C(=O)[C@]3(CC[C@H](NCc4cnc(-n5cnnn5)cn4)CC3)C[C@H]2C)COC1=O
